The values that follow come from publication PMC4202157, “Amphipathic tail-anchoring peptide is a promising therapeutic agent for prostate cancer treatment” (Oncotarget, 2014).

Data set [1] is described as follows: Precipitation / aggregation of peptide in cell culture medium. The following applies: for Precipitation in normal culture medium: 200 μM peptide added to DU145 cells in normal culture medium, 37 °C, 24 hours incubation, microscopy. The class given is physicochemical.
The next data set relates to DU145 xenograft. The data set is described as follows: DU145 xenograft in nude mice. The format is in vivo, NCR nude mice. How it is done:
(§1) Handling of animals was performed in accordance with protocols approved by the Institutional Animal Care and Use Committee (IACUC) of the Ohio State University. Five week-old NCR nude mice (Taconic Farms, Germantown, NY) were implanted subcutaneously in both flanks with 2 ×10^6 DU145 or PC-3 cells. After tumors reached 4 to 7 mm in diameter (about 9~14 days after implantation), the mice were randomly divided into two groups so that both the mean and the variance of the tumor diameters are of no significant difference among the groups prior to treatment. The ATAP-iRGD-M8 peptide was injected through tail vein once every two days during the whole procedure. Tumor volume was measured by a digital caliper (Thermo Fisher Scientific, Waltham, MA). Tumor volume was determined from the orthogonal dimensions (length, width) using the formula: tumor volume = 1/2(length × width^2). According to the IACUC guideline, the experiments will be terminated when tumors reached 1.5 cm in diameter. At the end of experiment, mice were sacrificed and xenografts were removed and weighted. For toxicological evaluation of peptide treatments, mouse body weights were measured every four days. […]

For a further data set, the system named is PC-3 xenograft. Nature of the data set: PC-3 xenograft in nude mice. The format is in vivo, NCR nude mice. To be noted: tail vein injection once every two days. How it is done: as §1
For data set [2], the system named is kidney, heart, liver, lung and spleen. Nature of the data set: H&E organ pathology in xenograft nude mice. The following applies: xenograft nude mice after peptide treatment, vs control. The class given is in vivo, NCR nude mice. On the procedure:
as §1

Data set [3] relates to DU145 cells. The data set is described as follows: Live-cell confocal imaging of peptide uptake and mitochondria localization. The class given is cell-based. The following applies: 2 μM Dylight488-labeled peptide, Mito Tracker Red, 50 μM Q-VD-OPh, confocal microscopy. On the procedure:
ATAP-iRGD and ATAP-iRGD-M8 peptides were labeled with an amine-reactive DyLight488 fluorophore (Pierce Biotechnology, Rockford, USA) according to the manufacturer's instructions. DU145 cells were cultured in the presence of 2 μM Dylight488-labeled ATAP-iRGD or ATAP-iRGD-M8 plus 50 nM Mito Tracker Red (Molecular Probes Inc., Eugene, OR). 50 μM Q-VD-OPh was added to the culture medium in order to prevent cell apoptosis. Sample images were taken by BioRad 2100 Radiance laser scanning confocal microscope (Bio-Rad Laboratories, Hercules, CA) with a 60×, 1.3NA oil immersion objective (Nikon Instruments Inc., Melville, NY).

The subject of data set [4] is DU145 cells. The data set is described as follows: MTT cell viability assay, DU145 cells. The format is cell-based. How it is done: (§2) The human esophageal squamous carcinoma cell line KYSE-150 was provided by Dr. Chung S. Yang (Rutgers University, Piscataway, NJ)[41, 42]. DU145, LNCaP, PC-3, K562, U87 and MDA-MB-231 cells were purchased from American Type Culture Collection and cultured with designated medium, supplemented with 10% fetal bovine serum, 100 unit/ml penicillin, and 100 μg/ml streptomycin. Cell viability was determined by MTT assay. Cells were plated at 1,000-1,500 cells per well in a 96-well plate and then treated with indicated amounts of ATAP peptides for 48 hours. Then, 20 μl (5 mg/ml in PBS) MTT [3-(4,5-dimethylthiazol-2-yl)-2,5-diphenyltetrazolium bromide] (Sigma Chemical Co., St. Louis, Mo.) was added to each well. After another 4 hours, 150 μL DMSO was added to dissolve formazan crystals in each well, and the absorbance were recorded at 570 nm.
For orientation: Formazan colour is commonly taken as a measure of viable cells.

The next data set concerns LNCaP cells. The format is cell-based. To be noted: 48 h. How it is done: as §2
Data set [5] concerns MDA-MB-231 breast adenocarcinoma cells. The class given is cell-based. The following applies: 48 h. On the procedure: as §2
Another data set deals with PC-3 cells. The class given is cell-based. The following applies: 48 h. How it is done:
as §2

The subject of a further data set is U87 glioblastoma cells. The class given is cell-based. The following applies: 48 h. How it is done: as §2
The test system of the next data set is K562 cells. The class given is cell-based, human. To be noted: 48 h. How it is done:
as §2

The test system of data set [6] is KYSE-150 esophageal squamous carcinoma cells. The format is cell-based, human. To be noted: 48 h. How it is done:
as §2

The next data set deals with SV129 mice. The data set is described as follows: Repetitive intravenous injection toxicity in SV129 mice. The class given is in vivo. How it is done: For further evaluation of the in vivo toxic effect of ATAP-iRGD, repetitive injections of ATAP-iRGD into the immune intact SV129 mice were conducted.

“Also recorded” adds a separate entry of the source. Bridge positions count the residues as written; N and C are the ends. Peptide text beside a SMILES is read from it.

For the molecule “Ac-KKFEPKSGWMTFLEVTGKIAEMLSLLKQYCRGDKGPDC-NH2 (disulfide 30-38 (inferred)) [ATAP-iRGD-M8, ATAP-iRGD with one more Lys, acetylated and amidated termini]”, the “Precipitation in normal culture medium” value in data set [1] was “no precipitation”. For the same molecule, the “Concentration at which no precipitation was observed” value in [1] (normal cell culture medium, neutral pH, prolonged incubation) is listed as “above 200 μM”. The “DU145 xenograft volume vs saline” value in the data set on DU145 xenograft (21 mg/kg via tail vein once every two days, n=6 treated, n=9 saline) is listed as “significantly smaller”. The “DU-145 xenograft weight at end of experiment” value in the data set on DU145 xenograft (xenografts dissected and weighted, mean±SEM, P<0.05 (Fig. S2)) is recorded as “significantly suppressed DU-145 tumor growth”. In the data set with PC-3 xenograft, the “PC-3 xenograft tumor growth vs saline” value is on record as “significant suppression of tumor growth”. Further, the “H&E pathology of kidney, heart, liver, lung and spleen” value in data set [2] is “no obvious changes”. In the data set with DU145 cells [3], the “Cell uptake and mitochondria localization” value is on record as “clear mitochondria target pattern”.

With `CC[C@H](C)[C@H](NC(=O)[C@H](CCCCN)NC(=O)CNC(=O)[C@@H](NC(=O)[C@@H](NC(=O)[C@H](CCC(=O)O)NC(=O)[C@H](CC(C)C)NC(=O)[C@H](Cc1ccccc1)NC(=O)[C@@H](NC(=O)[C@H](CCSC)NC(=O)[C@H](Cc1c[nH]c2ccccc12)NC(=O)CNC(=O)[C@H](CO)NC(=O)[C@H](CCCCN)NC(=O)[C@@H]1CCCN1C(=O)[C@H](CCC(=O)O)NC(=O)[C@H](Cc1ccccc1)NC(=O)[C@@H](N)CCCCN)[C@@H](C)O)C(C)C)[C@@H](C)O)C(=O)N[C@@H](C)C(=O)N[C@@H](CCC(=O)O)C(=O)N[C@@H](CCSC)C(=O)N[C@@H](CC(C)C)C(=O)N[C@@H](CO)C(=O)N[C@@H](CC(C)C)C(=O)N[C@@H](CC(C)C)C(=O)N[C@@H](CC(C)C)C(=O)N[C@@H](CCC(N)=O)C(=O)N[C@@H](Cc1ccc(O)cc1)C(=O)N[C@H]1CSSC[C@@H](C(=O)O)NC(=O)[C@H](CC(=O)O)NC(=O)[C@@H]2CCCN2C(=O)CNC(=O)[C@H](CCCCN)NC(=O)[C@H](CC(=O)O)NC(=O)CNC(=O)[C@H](CCCNC(=N)N)NC1=O` [Mutant M4] (H-KFEPKSGWMTFLEVTGKIAEMLSLLLQYCRGDKGPDC-OH; disulfide 29-37), the “Cytotoxic activity in DU145 cells, in words” value in the data set on DU145 cells [4] (MTT assay, 48 hours, unconjugated ATAP tested at 0.01 – 100 μM) is recorded as “complete abolishment of the cytotoxic activity”.

Broadly, the IC50 is the point on the concentration scale where inhibition reaches its midpoint. High values mean a need for much substance, low ones inhibition by little substance. For `CC[C@H](C)[C@H](NC(=O)[C@H](CCCCN)NC(=O)CNC(=O)[C@@H](NC(=O)[C@@H](NC(=O)[C@H](CCC(=O)O)NC(=O)[C@H](CC(C)C)NC(=O)[C@H](Cc1ccccc1)NC(=O)[C@@H](NC(=O)[C@H](CCSC)NC(=O)[C@H](Cc1c[nH]c2ccccc12)NC(=O)CNC(=O)[C@H](CO)NC(=O)[C@H](CCCCN)NC(=O)[C@@H]1CCCN1C(=O)[C@H](CCC(=O)O)NC(=O)[C@H](Cc1ccccc1)NC(=O)[C@@H](N)CCCCN)[C@@H](C)O)C(C)C)[C@@H](C)O)C(=O)N[C@@H](C)C(=O)N[C@@H](CCC(=O)O)C(=O)N[C@@H](CCSC)C(=O)N[C@@H](CC(C)C)C(=O)N[C@@H](CO)C(=O)N[C@@H](CC(C)C)C(=O)N[C@@H](CC(C)C)C(=O)N[C@@H](CCCCN)C(=O)N[C@@H](CCC(N)=O)C(=O)N[C@@H](Cc1ccc(O)cc1)C(=O)N[C@H]1CSSC[C@@H](C(=O)O)NC(=O)[C@H](CC(=O)O)NC(=O)[C@@H]2CCCN2C(=O)CNC(=O)[C@H](CCCCN)NC(=O)[C@H](CC(=O)O)NC(=O)CNC(=O)[C@H](CCCNC(=N)N)NC1=O` [ATAP-iRGD] (H-KFEPKSGWMTFLEVTGKIAEMLSLLKQYCRGDKGPDC-OH; disulfide 29-37), the IC50 with DU145 cells [4] (48 h) was 1.6 ± 0.5 µM; in the data set on LNCaP cells, 7.1 ± 1.7 µM; in data set [5], 5.9 ± 1.1 µM; in the data set on PC-3 cells, 9.2 ± 1.6 µM; with U87 glioblastoma cells, 10.3 ± 2.6 µM; in the data set on K562 cells, 107 ± 41 µM. The IC50 in data set [6] came out at 4.4 ± 0.5 µM. Besides, in the data set with SV129 mice (immune intact SV129 mice, repetitive intravenous injections), the “Signs of toxicity on repetitive injection” value was “no visible signs or symptoms of toxicity”. Moreover, the “H&E pathology of kidney, heart, liver, lung and spleen” value with SV129 mice (mouse, in vivo, iv) is given as “no significant pathological abnormalities”.

In the case of “Ac-KFEPKSGWMTFLEVTGKIAEMLSLLKQYCRGDKGPDC-NH2 (disulfide 29-37 (inferred)) [Mutant M7, ATAP-iRGD with acetylated amino terminus and amidated carboxyl terminus]”, in data set [1], the “Precipitation in normal culture medium” value is “precipitate; also recorded: pronounced precipitation”.
